From ChEMBL document CHEMBL1201862, “PubChem BioAssay data set” (2004)
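Compound exposure: 48 hours, 5 concentrations, 96-well plates. Here, GI50 denotes the concentration required for 50% inhibition of growth.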 Calls of active or inactive are those of the source. Rule as the data show it: active = GI50 up to about 1.1 µM and inactive = higher.

Columns and labels:
Experiment in all cases: growth of human tumour cells (NCI), 48 h
SF-295 = test system: SF-295
KM12 = test system: KM12
HT-29 = test system: HT-29
Malme-3M = test system: Malme-3M
CAKI-1 = test system: CAKI-1
A549 = test system: A549
HL-60 = test system: HL-60
SK-MEL-28 = test system: SK-MEL-28
LOX IMVI = test system: LOX IMVI
NCI/ADR-RES = test system: NCI/ADR-RES
A498 = test system: A498
K562 = test system: K562
COLO 205 = test system: COLO 205
SF-268 = test system: SF-268
OVCAR-8 = test system: OVCAR-8
SW-620 = test system: SW-620
MOLT-4 = test system: MOLT-4
OVCAR-3 = test system: OVCAR-3
UACC-62 = test system: UACC-62
HCT-116 = test system: HCT-116

SMILES | GI50 (SF-295) | GI50 (KM12) | GI50 (HT-29) | GI50 (Malme-3M) | GI50 (CAKI-1) | GI50 (A549) | GI50 (HL-60) | GI50 (SK-MEL-28) | GI50 (LOX IMVI) | GI50 (NCI/ADR-RES) | GI50 (A498) | GI50 (K562) | GI50 (COLO 205) | GI50 (SF-268) | GI50 (OVCAR-8) | GI50 (SW-620) | GI50 (MOLT-4) | GI50 (OVCAR-3) | GI50 (UACC-62) | GI50 (HCT-116)
CC(=O)Nc1cc2c(cc1O)CC[C@@H]1[C@@H]2CC[C@]2(C)[C@@H](O)CC[C@@H]12 | 31.3 µM (inactive) | 15 µM (inactive) | 30.4 µM (inactive) | 21.8 µM (inactive) | 84.1 µM (inactive) | 36.6 µM (inactive) | 29.6 µM (inactive) | 63.4 µM (inactive) | 34.6 µM (inactive) | 19.9 µM (inactive) | 24.1 µM (inactive) | 23.5 µM (inactive) | 30 µM (inactive) | 13.1 µM (inactive) | 44.3 µM (inactive) | 27.7 µM (inactive) | 34.7 µM (inactive) | – | – | –
C=CCN1C(N)=C(C(N)=O)S/C1=C1/SC(=S)N(c2ccc(C)cc2)C1=O | 49.8 µM (inactive) | > 100 µM (inactive) | > 100 µM (inactive) | 36.8 µM (inactive) | – | > 100 µM (inactive) | > 100 µM (inactive) | > 100 µM (inactive) | – | – | 3.65 µM (inactive) | > 100 µM (inactive) | > 100 µM (inactive) | > 100 µM (inactive) | > 100 µM (inactive) | > 100 µM (inactive) | > 100 µM (inactive) | > 100 µM (inactive) | > 100 µM (inactive) | > 100 µM (inactive)
N#CC(NC12CC3CC(CC(C3)C1)C2)c1ccccc1C(F)(F)F (centres undefined) | – | > 100 µM (inactive) | > 100 µM (inactive) | > 100 µM (inactive) | > 100 µM (inactive) | > 100 µM (inactive) | > 100 µM (inactive) | > 100 µM (inactive) | > 100 µM (inactive) | – | – | > 100 µM (inactive) | > 100 µM (inactive) | > 100 µM (inactive) | > 100 µM (inactive) | > 100 µM (inactive) | > 100 µM (inactive) | > 100 µM (inactive) | – | > 100 µM (inactive)
O=c1ccc2ccc(S)cc2o1 | > 100 µM (inactive) | > 100 µM (inactive) | > 100 µM (inactive) | > 100 µM (inactive) | > 100 µM (inactive) | > 100 µM (inactive) | > 100 µM (inactive) | > 100 µM (inactive) | > 100 µM (inactive) | > 100 µM (inactive) | > 100 µM (inactive) | – | > 100 µM (inactive) | > 100 µM (inactive) | > 100 µM (inactive) | > 100 µM (inactive) | 42 µM (inactive) | > 100 µM (inactive) | > 100 µM (inactive) | > 100 µM (inactive)
Cc1c(C#N)c2nnn(C)c(=O)n2c1-c1ccccc1 | 51.6 µM (inactive) | 57.1 µM (inactive) | – | – | > 100 µM (inactive) | 86.3 µM (inactive) | 30.8 µM (inactive) | > 100 µM (inactive) | – | 17.5 µM (inactive) | 98.6 µM (inactive) | – | – | > 100 µM (inactive) | 48.2 µM (inactive) | > 100 µM (inactive) | – | > 100 µM (inactive) | > 100 µM (inactive) | –
Cn1cc(C(=O)/C(Cl)=C(\Cl)C(=O)O)c2ccccc21 | > 100 µM (inactive) | > 100 µM (inactive) | > 100 µM (inactive) | > 100 µM (inactive) | > 100 µM (inactive) | > 100 µM (inactive) | > 100 µM (inactive) | > 100 µM (inactive) | – | – | > 100 µM (inactive) | > 100 µM (inactive) | – | – | > 100 µM (inactive) | > 100 µM (inactive) | > 100 µM (inactive) | > 100 µM (inactive) | > 100 µM (inactive) | > 100 µM (inactive)
CC(C)OP(=O)(OC(C)C)/C(=N/Nc1ccc([N+](=O)[O-])cc1)NCCO | – | > 100 µM (inactive) | – | > 100 µM (inactive) | > 100 µM (inactive) | 74.8 µM (inactive) | 42.7 µM (inactive) | > 100 µM (inactive) | 56.1 µM (inactive) | – | 3.15 µM (inactive) | 71.8 µM (inactive) | > 100 µM (inactive) | > 100 µM (inactive) | > 100 µM (inactive) | > 100 µM (inactive) | 48.9 µM (inactive) | > 100 µM (inactive) | 26.2 µM (inactive) | > 100 µM (inactive)
COc1cccc(N/C(C)=C2/CCOC2=O)c1 | > 10 µM (inactive) | > 10 µM (inactive) | > 10 µM (inactive) | > 10 µM (inactive) | > 10 µM (inactive) | > 10 µM (inactive) | > 10 µM (inactive) | > 10 µM (inactive) | > 10 µM (inactive) | > 10 µM (inactive) | > 10 µM (inactive) | – | > 10 µM (inactive) | > 10 µM (inactive) | > 10 µM (inactive) | > 10 µM (inactive) | > 10 µM (inactive) | > 10 µM (inactive) | > 10 µM (inactive) | > 10 µM (inactive)
CC(C)(C)CI | 18.5 µM (inactive) | 25.7 µM (inactive) | > 10 µM (inactive) | 19.7 µM (inactive) | – | 25.6 µM (inactive) | 22.9 µM (inactive) | 50.6 µM (inactive) | 17.3 µM (inactive) | – | 41.6 µM (inactive) | 21.6 µM (inactive) | 22.2 µM (inactive) | 33.7 µM (inactive) | > 10 µM (inactive) | 18.1 µM (inactive) | 37.2 µM (inactive) | 19.1 µM (inactive) | 29.9 µM (inactive) | 18.5 µM (inactive)
O=C(O)c1ccc([Se][Se]c2ccc(C(=O)O)cc2)cc1 | 23.6 µM (inactive) | 29 µM (inactive) | – | 26.1 µM (inactive) | 19.4 µM (inactive) | 25.8 µM (inactive) | – | 20.7 µM (inactive) | – | – | – | – | 32.9 µM (inactive) | 33.9 µM (inactive) | 28.6 µM (inactive) | 32.4 µM (inactive) | – | 22.5 µM (inactive) | 19.3 µM (inactive) | 18.1 µM (inactive)
NC1C=NNC1=O (centres undefined) | > 100 µM (inactive) | > 100 µM (inactive) | > 100 µM (inactive) | > 100 µM (inactive) | > 100 µM (inactive) | > 100 µM (inactive) | > 100 µM (inactive) | > 100 µM (inactive) | > 100 µM (inactive) | – | – | > 100 µM (inactive) | > 100 µM (inactive) | > 100 µM (inactive) | > 100 µM (inactive) | > 100 µM (inactive) | > 100 µM (inactive) | – | > 100 µM (inactive) | –
COc1cc(Nc2nc3cc(C(F)(F)F)ccc3n3cccc23)cc(OC)c1OC | 5.02 µM (inactive) | – | – | > 100 µM (inactive) | > 100 µM (inactive) | > 100 µM (inactive) | 0.762 µM (active) | > 100 µM (inactive) | – | 9.4 µM (inactive) | > 100 µM (inactive) | > 100 µM (inactive) | > 100 µM (inactive) | > 100 µM (inactive) | > 100 µM (inactive) | > 100 µM (inactive) | 8.49 µM (inactive) | > 100 µM (inactive) | > 100 µM (inactive) | > 100 µM (inactive)
COP(=O)(OC)C(N)CCSC (centres undefined) | > 100 µM (inactive) | > 100 µM (inactive) | > 100 µM (inactive) | > 100 µM (inactive) | > 100 µM (inactive) | > 100 µM (inactive) | > 100 µM (inactive) | > 100 µM (inactive) | > 100 µM (inactive) | > 100 µM (inactive) | – | > 100 µM (inactive) | > 100 µM (inactive) | > 100 µM (inactive) | > 100 µM (inactive) | > 100 µM (inactive) | > 100 µM (inactive) | > 100 µM (inactive) | > 100 µM (inactive) | > 100 µM (inactive)
O=S1(=O)CS(=O)(=O)OCCCO1 | 54.1 µM (inactive) | > 100 µM (inactive) | > 100 µM (inactive) | > 100 µM (inactive) | 24.3 µM (inactive) | > 100 µM (inactive) | 59 µM (inactive) | > 100 µM (inactive) | > 100 µM (inactive) | > 100 µM (inactive) | > 100 µM (inactive) | > 100 µM (inactive) | > 100 µM (inactive) | > 100 µM (inactive) | > 100 µM (inactive) | > 100 µM (inactive) | 51.3 µM (inactive) | > 100 µM (inactive) | > 100 µM (inactive) | > 100 µM (inactive)
CC1(C)CCCC2(C)[C@@H]1CC[C@]13C[C@](C)(CC[C@@H]21)[C@@H]3CO (some centres undefined) | > 100 µM (inactive) | > 100 µM (inactive) | > 100 µM (inactive) | > 100 µM (inactive) | > 100 µM (inactive) | > 100 µM (inactive) | > 100 µM (inactive) | > 100 µM (inactive) | > 100 µM (inactive) | – | – | > 100 µM (inactive) | > 100 µM (inactive) | > 100 µM (inactive) | – | > 100 µM (inactive) | > 100 µM (inactive) | > 100 µM (inactive) | > 100 µM (inactive) | > 100 µM (inactive)
C#C[C@]1(O)[C@@H](CO)O[C@@H](n2ccc(=O)[nH]c2=O)[C@@H]1O | 0.191 µM (active) | 0.144 µM (active) | 0.0171 µM (active) | 0.288 µM (active) | < 0.0161 µM (active) | 0.0308 µM (active) | 0.356 µM (active) | 0.791 µM (active) | 0.0246 µM (active) | < 0.0134 µM (active) | 0.724 µM (active) | < 0.0146 µM (active) | < 0.01 µM (active) | 0.116 µM (active) | < 0.01 µM (active) | 0.082 µM (active) | < 0.0177 µM (active) | 0.513 µM (active) | 0.156 µM (active) | < 0.01 µM (active)
